SMILES strings stand for the structures.

Results on 4 compounds are retold here after ChEMBL document CHEMBL1158298, “Syringin 4-O-beta-glucoside, a new phenylpropanoid glycoside, and costunolide, a nitric oxide synthase inhibitor, from the stem bark of Magnolia sieboldii” (J Nat Prod, 1996).

Common to all, as to format: cell-based
The test system of data set [1] is J774.1. Put plainly: Inhibition of nitric oxides synthase in mouse J774.1 cells assessed as inhibition of LPS-induced NO release at 100 ug/mL after 48 hrs by Griess assay relative to control. For orientation: Griess reagent forms a coloured azo dye with nitrite.
Data set [2] deals with J774.1. Kind of data set: Inhibition of nitric oxides synthase in mouse J774.1 cells assessed as inhibition of LPS-induced NO release at 1 ug/mL after 48 hrs by Griess assay relative to control.
Data set [3] is described as follows: Cytotoxicity against mouse J774.1 cells assessed as cell viability after 48 hrs by MTT assay. As to conditions: read-out: Activity. A general note: Formazan colour is commonly taken as a measure of viable cells.

One may read the inhibition as the change of the read-out against control, counted positive when it falls. `COc1cc(/C=C/CO)cc(OC)c1O[C@@H]1O[C@H](CO)[C@@H](O)[C@H](O)[C@H]1O`: the inhibition with J774.1 [1] is 12.3%. Still for that read-out and setting: under `COc1cc(/C=C/CO)cc(OC)c1O[C@@H]1O[C@H](CO)[C@@H](O[C@@H]2O[C@H](CO)[C@@H](O)[C@H](O)[C@H]2O)[C@H](O)[C@H]1O` stands 22.3%.

`C=C1C(=O)O[C@@H]2/C=C(\C)CC/C=C(\C)CC[C@@H]12` [COSTUNOLIDE]: the results for the inhibition in the data set with J774.1 [2] and in the data set with J774.1 [1] were 50.3% and 94.6%, respectively. Besides, the viability at 48 h in data set [3] was 92%.

In the case of `C[C@H]1O[C@H](O[C@@H]2[C@@H](O)[C@H](OCCc3ccc(O)c(O)c3)O[C@H](CO[C@H]3O[C@@H](CO)[C@H](O)[C@@H](O)[C@@H]3O)[C@H]2OC(=O)/C=C/c2ccc(O)c(O)c2)[C@@H](O)[C@@H](O)[C@@H]1O`, in the data set on J774.1 [1], the inhibition amounted to 10.4%.
